Tests used:
[1] = Singlet oxygen yield detection with DPBF; type: physicochemical; conditions: physiological saline containing 1% CEL; for Slope of DPBF bleaching (singlet oxygen yield): laser 610 nm, 225 mW/cm^2, DPBF absorbance at 414 nm
Excerpt: Generation of singlet oxygen was detected chemically using the disodium salt of 1,3-diphenylisobenzofuran (DPBF) as a singlet oxygen sensor. DPBF is bleached by singlet oxygen to its corresponding endoperoxide. The reaction was monitored spectrophotometrically by recording the decrease in optical density at 414 nm. The bleaching rate of DPBF can also be used as a method to compare the yield of singlet oxygen. In the actual measurement of singlet oxygen yield, a certain amount of DPBF ethanol solution and test solution are mixed together in a dark room. A rotor is added to the cuvette, and the laser is irradiated for different times while stirring. The absorption spectra of the mixed solution was tested after different time of irradiation with an ultraviolet spectrophotometer, then the change of the absorption value of DPBF at 414 nm was obtained.

[2] = Biological safety in the PDT study (body weight, H&E of main organs); type: in vivo, Balb/c mice; conditions: for Mouse body weight change: all treatment groups with or without light, 2 mg/kg i.v., n = 5
Protocol: (§1) PDT treatment was performed on the 7th day when the 4T1 tumor model was established in mice, and the average initial tumor volume was 100 mm^3. The test groups were as follows: Group 1: PBS; Group 2: Light; Group 3: SC; Group 4: RSP; Group 5: SC + Light, Group 6: RSP + Light. First, 200 μl of RSP (2 mg/kg), SC (2 mg/kg), and PBS were injected intravenously. 4 h after the injection, the tumor area was irradiated with 671 nm laser (0.1 W/cm^2) for 6 min with a total laser intensity of 36 J/cm^2 and laser treatment was performed on groups 2, 5, and 6. After PDT treatment, the tumor size was measured every day using electronic vernier calipers until 12 days. The maximum width (X) and length (Y) of the tumor were measured, and the following formula was used to calculate the tumor volume: V = (X^2Y)/2. From the first day of treatment, the weight change of each group of mice was recorded until the end of the treatment. Mice in each group were selected randomly, and excised tumors for pathological analysis. In order to investigate the biological safety of this PDT method, after the treatment, the main organs (heart, liver, spleen, lung, kidney) of each group of differently treated mice were dissected, and H&E section staining was performed to evaluate their Pathological changes.

4T1 cells [3] = experiment: Subcellular co-localization with lysosomes (confocal); type: cell-based, murine; conditions: 1 μM, 4 h incubation, Lysotracker, n = 3
Protocol: Subcellular colocalization pictures were taken under a laser confocal microscope (Nikon A1R high-speed confocal laser microscope, Nikon Corporation, Japan). 4T1 cells were cultured in 35 mm cell culture dishes at a density of 20,000 cells/dish, and cultured overnight. After 24 h, the medium was replaced with DMEM medium (containing 0.05% CEL) containing 1 μM RSP or SC. After 4 h of incubation, the plates were washed with PBS and then stained with DMEM medium containing Lysotracker for 30 min and washed again with PBS. Then fixed and counterstained with DAPI. The light was always avoided during the entire operation. The dynamic change of fluorescence on any straight line passing through the whole cell was analyzed by Image J. The result was plot to qualitatively analyze the co-localization situation of lysosome and phthalocyanine. In order to more completely reflect the co-localization of lysosomes and phthalocyanines, the Pearson co-localization coefficient was analyzed on the fluorescence fields of cells obtained from three photographs, and the difference in lysosomal localization of RSP and SC in the cells was quantitatively analyzed.

4T1 cells [4] = experiment: Cytotoxicity assay (CCK8), phototoxicity and dark toxicity; type: cell-based, murine; conditions: for Dark toxicity: cell viability without light: no light, CCK8, n = 5
Protocol: 4T1 cells were seeded in a 96-well plate at a density of 10,000 cells/well, and each well was cultured overnight with 200 μL of DMEM medium containing 10% FBS. On the second day, the original medium was discarded and replaced with DMEM medium containing different concentrations of SC or RSP (containing 0.05% CEL). After 4 h of incubation, the cells were incubated with fresh medium and irradiated with a xenon lamp. Then 10 μL of CCK8 was added to each well, and the incubation continued for 1 h. After the incubation, the absorbance value at 450 nm was measured with enzyme labels (Synergy HT, BioTek, USA). At the same time, a blank control was set to determine cell viability. The dark toxicity test method was similar, except that no light was applied to the cells.

4T1 tumor model = experiment: In vivo photodynamic activity; parameters: species or system Balb/c mice; conditions: for Tumor volume without light versus PBS and Light groups: no laser
Protocol: (§2) Balb/c female mice aged 6 to 8 weeks were purchased from Beijing Weitong Lihua Laboratory Animal Technology. All animal experiments were performed under protocols approved by the Institutional Animal Care and Use Committee (IACUC) of Peking University. In situ breast cancer tumor models were established by injecting 2 * 10^7 4T1-luci tumor cells under the fourth pair of mammary glands in mice. Treatment was initiated approximately 6 days after inoculation when the tumor volume grew to approximately 100 mm^3.
as §1

[5] = Blood circulation dynamics and organ distribution; type: in vivo, Balb/c mice
Protocol: The ideal targeted photosensitizer should be able to quickly accumulate at the tumor site and metabolize from normal organs after injection. […] After 24 h, 48 h, and 120 h of RSP injection, the major organs of the mice were dissected and their fluorescence was quantified.
In order to investigate the blood clearance rate of RSP, healthy male Balb/c mice were selected as experimental subjects, and blood was collected from the orbit to detect the drug concentration in the body at different time points. Fluorescence labeled Organism Bioimaging Instrument (FOBI, South Korea) was used to measure the relative concentration of phthalocyanine in mouse plasma. Mice were injected with RSP through the tail vein at a dose of 2 mg/kg. At different time intervals, blood samples were collected from the orbits of mice with capillary tubes coated with heparin, placed on ice, and centrifugated to separate blood cells (3000 g, 10 min). The resulting plasma samples were analyzed for phthalocyanine concentration.

[6] = Photostability under laser irradiation; type: physicochemical; conditions: 4 mins of laser irradiation, 225 mW/cm^2, UV-vis absorption
Protocol: In order to better simulate the situation of photosensitive molecules in practical applications, the singlet oxygen yield of RSP in physiological saline containing 1% CEL was measured (Fig. 2c). The slope of RSP and SC was 0.06481 and 0.07165 respectively (Supplementary Fig. 6). […] We further determined the photostability of RSP. […] The axial modification of RSP helped to improve the stability of the phthalocyanine parent ring when singlet oxygen was generated, so that it was less prone to degrade.

4T1 cells [7] = experiment: Apoptosis/necrosis by flow cytometry after TPDT; type: cell-based, murine; conditions: 500 nM, 4 h incubation, with light
Protocol: The apoptosis rate and necrosis rate of the cells were detected on the flow cytometer according to the operating procedure of the apoptosis detection kit. 4T1 cells were seeded in a six-well plate at a density of 5 * 10^5 cells/well overnight. On the second day, the medium was changed to DMEM medium containing 500 nM RSP/SC and 1% CEL, and the cells were incubated for 4 h. Then the medium was replaced with fresh DMEM. The cells were applied light/ no light, and then digested.

[8] = Solubility and aggregation state (absorption spectra); type: physicochemical
Excerpt: Therefore, we dissolved RSP in physiological saline containing 1% CEL, DMEM medium containing 0.05% CEL, and DMF (as a control) to measure its absorption and fluorescence spectrum. […] RSP had the characteristics of not being aggregated in physiological saline and cell culture media, which provides a basis for further investigation of its phototoxicity.

4T1 tumor = experiment: In vivo fluorescence imaging of tumor targeting; parameters: species or system Balb/c mice
Protocol: as §2
For in vivo fluorescence imaging, RSP or SC dissolved in physiological saline (containing 1% CEL) was injected intravenously at a dose of 2 mg/kg into tumor-bearing mice (both in situ and subcutaneous models). Then IVIS Spectrum In Vivo Imaging System (PerkinElmer) was utilized to collect the fluorescence signals of RSP (660 nm/710 nm) in subcutaneous models at different times after the injection. The small animal fluorescence imaging system was used for in situ tumor-bearing mice imaging, taking pictures, and recording. The excitation wavelength was 660 nm, and the fluorescence signal was collected with a 700 nm filter. Then, the FOBI software was used to process the data to analyze the enrichment of phthalocyanines in the tumors of the mice after different injection times. The mice after 24 h fluorescence imaging were sacrificed, and the hearts, livers, spleens, lungs, kidneys, and tumors were collected for analysis of fluorescence semiquantitative biodistribution.

[9] = RSP + light (RSPL), tumor sections, n = 3
[10] = subcutaneous tumor model, 2 mg/kg tail vein, n = 3

2[4-(3-carboxypropyl)phenoxy]silicon phthalocyanine [SC]
Slope of DPBF bleaching (singlet oxygen yield) [1]: 0.07165 | Mouse body weight change [2]: no significant changes | Lysosomal colocalization index (Pearson co-localization coefficient) (4T1 cells [3]): 0.38 | Dark toxicity: cell viability without light (4T1 cells [4]): did no significantly decreased | Tumor volume without light versus PBS and Light groups (4T1 tumor model; 2 mg/kg i.v., n = 5): no significant difference | Inhibition of tumor cell proliferation with light, in words (4T1 tumor model; SC + light, 2 mg/kg i.v., 671 nm laser 36 J/cm^2, tumor weight, n = 5): not significantly inhibited

N=C(N)NCCC[C@@H]1NC(=O)[C@H](CCCCNC(=O)CCc2ccc(O[Si]3(Oc4ccc(CCC(=O)O)cc4)n4c5c6ccccc6c4N=C4N=C(N=c6c7ccccc7c(n63)=NC3=NC(=N5)c5ccccc53)c3ccccc34)cc2)NC(=O)[C@@H](Cc2ccc(O)cc2)NC(=O)[C@H](CC(=O)O)NC(=O)CNC1=O (stereo partly shown) [RSP, cRGDyK modified targeting silicon phthalocyanine]
plasma half-life (t1/2α): 45 min | Decrease of singlet oxygen yield relative to SC [1]: 10% | Slope of DPBF bleaching (singlet oxygen yield) [1]: 0.06481 | H&E pathology of heart, liver, spleen, lung and kidney ([2]; after treatment, RSP injection and laser irradiation): no obvious pathological phenomena | Mouse body weight change [2]: no significant changes | Lysosomal colocalization index (Pearson co-localization coefficient) (4T1 cells [3]): 0.78 | Elimination half-time (t1/2β) ([5]; healthy male Balb/c mice, 2 mg/kg tail vein, plasma fluorescence (FOBI)): 463.02 min | Fluorescence of main organs 120 h after injection ([5]; mice, 2 mg/kg intravenous, 120 h, n = 3): no obvious fluorescent signal can be detected | Fraction metabolized in 48 h ([5]; mice, 2 mg/kg intravenous, fluorescence of main organs, n = 3): more than 90% | Absorbance at maximum absorption wavelength remaining after irradiation (photostability) [6]: about 80% | Increase of apoptotic rate compared with SC (4T1 cells [7]): 9.73% | Dark toxicity: cell viability without light (4T1 cells [4]): did no significantly decreased | Killing effect upon exposure to light compared with SC (4T1 cells [4]; λ > 610 nm, 48 J/cm^2, 0 to 2 μM): lower killing effect | Tumor volume without light versus PBS and Light groups (4T1 tumor model; 2 mg/kg i.v., n = 5): no significant difference | Apoptosis in tumor tissue (TUNEL) relative to SCL group (4T1 tumor model; [9]): twice that of SCL group | Ki67 proliferation signal as % of PBS control group (4T1 tumor model; [9]): 10% | Ki67 proliferation signal as fraction of SCL group (4T1 tumor model; [9]): 1/4 | Solubility in aqueous solutions with Cremophor EL ([8]; aqueous solutions with 1 % Cremophor EL (CEL)): good solubility | Aggregation state from absorption spectra ([8]; physiological saline containing 1% CEL and DMEM medium containing 0.05% CEL, compared with DMF): remained monomer | Solubility in pure water ([8]; pure water): limited solubility | Fluorescence signal of excised tumor, relative to SC (semiquantitative) (4T1 tumor; organs and tumors dissected 24 h after injection, 2 mg/kg, n = 3): four folds higher than that of SC | Fluorescence intensity in orthotopic mouse tumors, folds of control (4T1 tumor; orthotopic mouse tumors, as worded in the introduction): 4 folds | Onset of tumor accumulation after injection (4T1 tumor; [10]): ≤ 0.5 h | Time of peak tumor fluorescence intensity after injection (4T1 tumor; [10]): 6 h | Fluorescence intensity of tumor site in vivo, folds of SC (4T1 tumor; subcutaneous tumor model, 2 mg/kg, 24 h after injection, n = 3): 2.5 folds
